Where two headings read alike, the source gives them in different places.
Legend:
SK-OV-3-MDR-1-6/6 cells = assay: Antiproliferative SRB assay, Pgp expressing SK-OV-3; format: cell-based, human; settings: for IC50: Homo sapiens, SK-OV-3, Table 49, Pgp expressing line, 48 hr, SRB assay; for Rr (Pgp): relative resistance: IC50 of expressing line divided by IC50 of parental SK-OV-3
Procedure: (§1) Cell Culture. Various representative cancer and other cell lines were sourced and grown as described previously [Mooberry, S. L., et al., Mol. Pharm. 72, 132-140 (2007)]. MDA-MB-435 (human melanoma cancer cells), and MDA-MB-231 (human breast cancer cells) were grown in IMEM Richter's Medium (Life Technologies, Grand Island, N.Y.) with 10% FBS (Hyclone, Logan, Utah) and 25 μg/mL gentamicin sulfate (Life Technologies). A-10 (embryonic rat vascular smooth muscle cells) and HeLa (human cervical cancer cells), SK-OV-3 (human ovarian cancer cells) and SK-OV-3-MDR-1-M6/6 (a clone of the SK-OV-3 that was generated from SK-OV-3 cells by adenovirus-mediated expression of MDR1) were grown in Basal Medium Eagle (BME, Sigma-Aldrich, St. Louis, Mo.) containing Earle's salts, 50 μg/ml gentamicin sulfate, and 10% FBS. HeLa cells (a single-cell clone derived from transduction of HeLa cells with wild-type (WT) βIII-tubulin) were grown in Dulbecco's Modified Eagle's Medium (DMEM, Life Technologies) containing 50 μg/mL gentamicin sulfate and 10% FBS.
(§2) Antiproliferative Effects. The pyrrole compounds were evaluated for their antiproliferative effects in a panel of cancer cell lines. Cells were plated into 96-well plates at predetermined densities and allowed to attach and proliferate for 24 hr, and then the compounds were added. After a 48 hr exposure to the compounds, the cells were fixed with trichloroacetic acid and cellular protein was determined using the sulforhodamine B (SRB) assay (Skehan et al., J. Natl. Cancer Inst. 82, 1107-12, (1990); Boyd and Paull Drug Devel. Res. 34, 91-109, (1995)). Concentration response curves were constructed, and the IC50 (the concentration required to inhibit proliferation by 50%) values were determined from the linear portions of the log concentration-response curves as described previously [Tinley, T. L., et al., Cancer Res. 63, 3211-3220, (2003)] as shown in Table 48.
(§3) First, drug resistance mediated by the expression of βIII tubulin was evaluated in an isogenic HeLa cell line pair. Expression of the βIII tubulin isotype is associated with clinical drug resistance to the taxanes in ovarian cancer, non small-cell lung cancer and breast cancer [Galmarini, C. M., et al., Clin. Cancer Res. 14, 4511-4516 (2008)]. Secondly, drug resistance mediated by the expression of the drug efflux pump protein, Pgp, was evaluated in the isogenic SK-OV-3 cell line pair. […] All tubulin-binding anticancer drugs used currently in the clinic, except cabazitaxel, are substrates for Pgp, thus limiting their utility in drug resistant tumors [Penson, R. T., et al., Gynecol. Oncol. 93, 98-106 (2004)]. Differences in sensitivity between the parent and transformed cell line, indicative of resistance, was determined by calculating relative resistance (Rr) values in the two pairs of isogenic cell lines (dividing the IC50 of the expressing cell line by the IC50 of the parental cell line).

HeLa WT-β-III cells = assay: Antiproliferative SRB assay, βIII-tubulin expressing HeLa; format: cell-based, human; settings: for IC50: Homo sapiens, HeLa, Table 49, βIII tubulin expressing line, 48 hr, SRB assay; for Rr (β-III): relative resistance: IC50 of expressing line divided by IC50 of parental HeLa
Procedure: as §1, §2
(§4) First, drug resistance mediated by the expression of βIII tubulin was evaluated in an isogenic HeLa cell line pair. Expression of the βIII tubulin isotype is associated with clinical drug resistance to the taxanes in ovarian cancer, non small-cell lung cancer and breast cancer [Galmarini, C. M., et al., Clin. Cancer Res. 14, 4511-4516 (2008)]. Secondly, drug resistance mediated by the expression of the drug efflux pump protein, Pgp, was evaluated in the isogenic SK-OV-3 cell line pair. The expression of Pgp can lead to lower intracellular drug concentrations and diminished cytotoxic effects both in vitro and in vivo. All tubulin-binding anticancer drugs used currently in the clinic, except cabazitaxel, are substrates for Pgp, thus limiting their utility in drug resistant tumors [Penson, R. T., et al., Gynecol. Oncol. 93, 98-106 (2004)]. Differences in sensitivity between the parent and transformed cell line, indicative of resistance, was determined by calculating relative resistance (Rr) values in the two pairs of isogenic cell lines (dividing the IC50 of the expressing cell line by the IC50 of the parental cell line).

[1] = system: HeLa (human cervical cancer cells); assay: Antiproliferative SRB assay, HeLa; format: cell-based; settings: Homo sapiens, HeLa
Procedure: as §1, §2, §4

[2] = system: SK-OV-3 (human ovarian cancer cells); assay: Antiproliferative SRB assay, SK-OV-3; format: cell-based; settings: Homo sapiens
Procedure: as §1, §2, §3

[3] = system: MDA-MB-435 (human melanoma cancer cells); assay: Antiproliferative SRB assay, MDA-MB-435; format: cell-based; settings: Homo sapiens, MDA-MB-435, read-out: MDA-MB-435 Anti-Proliferative Activity, IC50
Procedure: as §1, §2

A-10 cells = assay: Cellular microtubule loss by indirect immunofluorescence; format: cell-based, rat; settings: Rattus norvegicus, A10; Table 50; concentration causing approximately 50% loss of interphase microtubules; read-out: EC50 Values (nM) for Microtubule Loss in A-10 cells
Procedure: The effects of representative compounds on cellular microtubules were evaluated in A-10 (embryonic rat vascular smooth muscle cell line) cells using indirect immunofluorescence techniques as previously described (Tinley et al., Cancer Res. 63, 3211-20 (2003)). Cells were visualized using a Nikon Eclipse 80i fluorescence microscope and NIS Elements software. Changes in both interphase and mitotic microtubules were noted and photographed. The EC50 values, the concentration that causes approximately 50% loss of interphase microtubules was determined by evaluating a range of concentrations of each compound and the percent cellular microtubule depolymerization that was observed visually at each concentration was noted.
Microtubules were visualized by indirect immunofluorescence using a β-tubulin antibody, and the DNA was visualized with DAPI. A representative concentration response curve for NT-7-16 is also shown in FIG. 1 that was used to calculate its corresponding EC50 for microtubule loss. Concentration response curves for microtubule loss were plotted using data from at least three experiments for each compound and the corresponding EC50 values for microtubule loss are presented in Table 50.

[4] = target: T1, purified porcine brain tubulin (Sus scrofa, UniProt P02554); assay: Inhibition of polymerization of purified tubulin (absorbance at 340 nm); format: biochemical; settings: compound at 2 μM
T1 construct: of Purified Porcine Brain Tubulin; from tissue; host or cells: porcine brain

[5] = system: variety of cancer cell lines; settings: against cancer cell lines; cited from earlier work
HeLa cells = assay: Cell cycle distribution by flow cytometry; format: cell-based, human; settings: HeLa cells treated for 18 hr; FIG. 3: 25 nM NT-7-16, 12.5 nM paclitaxel
Procedure: The effects of NT-7-16 on cell cycle distribution were determined. […] The cells were stained with Kirshan's reagent (Kirshan, Cell Biol. 66, 188-93 (1975)), and cell cycle distribution was measured using a Millipore Muse flow cytometer.
The effects of NT-7-16 on cell cycle distribution were determined. […] The cells were stained with Kirshan's reagent (Kirshan Cell Biol. 66, 188-93. (1975)), and cell cycle distribution was measured using a Millipore Muse flow cytometer.

[6] = target: colchicine binding site on tubulin (Sus scrofa, UniProt P02554); assay: Colchicine site binding, fluorometric assay
[7] = Table 48, 48 hr exposure, read-out: HeLa Anti-Proliferative Activity, IC50
[8] = Table 49, parental line, 48 hr, read-out: HeLa IC50
[9] = SK-OV-3, Table 48, 48 hr exposure, read-out: SK-OV-3 Anti-Proliferative Activity, IC50
[10] = SK-OV-3, Table 49, parental line, 48 hr, read-out: SK-OV-3 IC50
[11] = Table 48, 48 hr exposure, SRB assay

T1 sequence (P02554 whole entry): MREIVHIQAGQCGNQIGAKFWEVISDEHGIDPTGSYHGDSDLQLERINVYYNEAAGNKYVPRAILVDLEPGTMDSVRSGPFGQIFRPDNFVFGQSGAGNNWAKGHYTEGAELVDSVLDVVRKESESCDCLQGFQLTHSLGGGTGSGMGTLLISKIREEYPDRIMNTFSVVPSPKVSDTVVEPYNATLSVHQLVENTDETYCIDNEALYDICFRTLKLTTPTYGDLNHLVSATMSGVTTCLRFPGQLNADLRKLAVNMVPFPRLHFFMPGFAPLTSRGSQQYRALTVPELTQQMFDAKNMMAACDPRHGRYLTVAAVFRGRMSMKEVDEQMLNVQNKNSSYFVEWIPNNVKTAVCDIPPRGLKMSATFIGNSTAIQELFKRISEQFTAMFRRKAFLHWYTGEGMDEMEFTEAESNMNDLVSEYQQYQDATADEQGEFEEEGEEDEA
T1 sequence (P02550 whole entry partner): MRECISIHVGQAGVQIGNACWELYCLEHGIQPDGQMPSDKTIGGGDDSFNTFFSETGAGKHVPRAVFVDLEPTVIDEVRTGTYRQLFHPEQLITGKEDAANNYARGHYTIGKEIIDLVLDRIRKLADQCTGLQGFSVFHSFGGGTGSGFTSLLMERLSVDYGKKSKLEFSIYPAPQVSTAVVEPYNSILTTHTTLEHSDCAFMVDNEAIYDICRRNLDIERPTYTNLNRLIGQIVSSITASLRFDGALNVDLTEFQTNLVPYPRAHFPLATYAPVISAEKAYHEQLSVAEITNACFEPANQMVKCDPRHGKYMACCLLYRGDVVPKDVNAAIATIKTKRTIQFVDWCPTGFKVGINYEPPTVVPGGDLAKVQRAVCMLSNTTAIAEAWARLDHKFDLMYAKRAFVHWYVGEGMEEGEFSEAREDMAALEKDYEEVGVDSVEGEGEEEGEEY
Chain of colchicine binding site on tubulin (P02554 whole entry): as the sequence (P02554 whole entry) above
Chain of colchicine binding site on tubulin (P02550 whole entry partner): as the sequence (P02550 whole entry partner) above

Row | Structure (SMILES) | IC50 (SK-OV-3-MDR-1-6/6 cells) [µM] | IC50 (HeLa WT-β-III cells) [µM] | IC50 [1, 7] [µM] | IC50 [2, 9] [µM] | IC50 [3, 11] [µM] | IC50 ([3]; Table 52) [µM] | EC50 (A-10 cells) [nM] | melting point [°C] | inhibition at 2 µM [4] [%] | effect on colchicine binding ([6]; at 100 μM) | effect on colchicine binding (FIG. 9) ([6]; result in words) | Rr (Pgp) (SK-OV-3-MDR-1-6/6 cells) | Rr (β-III) (HeLa WT-β-III cells) | IC50 [1, 8] [µM] | IC50 [2, 10] [µM] | fold less active than JG-03-14 in vitro [5] | cell cycle distribution (HeLa cells)
1 | CCOC(=O)c1[nH]c(Br)c(-c2cc(OC)c(OC)c(OC)c2)c1Br [4-[(3,4,5-trimethoxy)-phenyl]-3,5-dibromopyrrole 2-carboxylic acid ethyl ester] |  |  |  |  |  |  |  |  |  |  |  |  |  |  |  | more than 350 fold | 
2 | CCOC(=O)c1[nH]c(C(F)F)c(-c2ccc(OC)c(OC)c2OC)c1Br [Example 6, 3-Bromo-4-(2,3,4-trimethoxyphenyl)-5-(difluoromethinyl)-1H-pyrrole 2-carboxylic acid ethyl ester] | 0.174 ± 0.0125 | 0.184 ± 0.0303 | 0.142 ± 0.011 | 0.227 ± 0.014 | 0.113 ± 0.006 | 0.113 ± 0.006 | 315 | 149 to 151 | 55 |  |  | 0.8 | 1.3 | 0.142 ± 0.011 | 0.227 ± 0.014 |  | 
3 | CC[C@]1(O)C[C@@H]2CN(CCc3c([nH]c4ccccc34)[C@@](C(=O)OC)(c3cc4c(cc3OC)N(C)[C@H]3[C@@](O)(C(=O)OC)[C@H](OC(C)=O)[C@]5(CC)C=CCN6CC[C@]43[C@@H]65)C2)C1 [vinblastine, reference compound] |  |  |  |  |  |  |  |  |  | no effect | does not |  |  |  |  |  | 

Continued by falling IC50 (SK-OV-3-MDR-1-6/6 cells), values first:

Row | IC50 (SK-OV-3-MDR-1-6/6 cells) [µM] | IC50 (HeLa WT-β-III cells) [µM] | IC50 [1, 7] [µM] | IC50 [2, 9] [µM] | IC50 [3, 11] [µM] | IC50 ([3]; Table 52) [µM] | EC50 (A-10 cells) [nM] | melting point [°C] | inhibition at 2 µM [4] [%] | effect on colchicine binding ([6]; at 100 μM) | effect on colchicine binding (FIG. 9) ([6]; result in words) | Structure (SMILES) | Rr (Pgp) (SK-OV-3-MDR-1-6/6 cells) | Rr (β-III) (HeLa WT-β-III cells) | IC50 [1, 8] [µM] | IC50 [2, 10] [µM] | fold less active than JG-03-14 in vitro [5] | cell cycle distribution (HeLa cells)
4 | 2.33 | 0.0211 ± 0.0018 | 0.0015 ± 5e-05 |  | 0.002 ± 0.0001 |  |  |  |  |  |  | CC(=O)O[C@H]1C(=O)[C@@]2(C)[C@H]([C@H](OC(=O)c3ccccc3)[C@]3(O)C[C@H](OC(=O)[C@H](O)[C@@H](NC(=O)c4ccccc4)c4ccccc4)C(C)=C1C3(C)C)[C@]1(OC(C)=O)CO[C@@H]1C[C@@H]2O [paclitaxel, reference compound] |  | 14.1 | 0.0015 ± 5e-05 |  |  | initiated mitotic accumulation
5 | 0.0822 ± 0.0094 | 0.104 ± 0.0065 | 0.0317 ± 0.0048 | 0.072 ± 0.0091 | 0.057 ± 0.005 | 0.057 ± 0.005 | 66 | 158 to 160 | 68 |  |  | CCOC(=O)c1[nH]c(C=O)c(-c2ccc(OC)c(OC)c2OC)c1Br [Example 2, 3-Bromo-4-(2,3,4-trimethoxyphenyl)-5-formyl-1H-pyrrole 2-carboxylic acid ethyl ester] | 1.1 | 3.3 | 0.0317 ± 0.0048 | 0.072 ± 0.0091 |  | 
6 | 0.0422 ± 0.0055 | 0.0261 ± 0.0008 | 0.0206 ± 0.0019 | 0.0262 ± 0.0021 | 0.0196 ± 0.0018 | 0.0196 ± 0.0018 | 88.1 | 173 to 176 | 78 |  |  | CCOC(=O)c1[nH]c(C#N)c(-c2ccc(OC)c(OC)c2OC)c1Br [Example 11, 3-Bromo-4-(2,3,4-trimethoxyphenyl)-5-cyano-1H-pyrrole 2-carboxylic acid ethyl ester] | 1.6 | 1.3 | 0.0206 ± 0.0019 | 0.0262 ± 0.0021 |  | 
7 | 0.0175 ± 0.0012 | 0.0125 ± 0.0002 | 0.0119 ± 0.0013 | 0.0138 ± 0.0009 | 0.0076 ± 0.0005 | 0.0076 ± 0.0005 | 22 | 125 to 128 | 99 |  |  | CCOC(=O)c1[nH]c(C=NOC)c(-c2ccc(OC)c(OC)c2OC)c1Br (mixture of isomers) [Example 12, Cis/Trans-3-Bromo-4-(2,3,4-trimethoxyphenyl)-5-(O-methyl-oximino)-1H-pyrrole-2-carboxylic acid ethyl ester] | 1.3 | 1.1 | 0.0119 ± 0.0013 | 0.0138 ± 0.0009 |  | 

Reference: patent US9944597B2, “Polysubstituted pyrroles having microtubule-disrupting, cytotoxic and antitumor activities and methods of use thereof” (THE BOARD OF REGENTS OF THE UNIVERSITY OF TEXAS SYSTEM, priority 2013, dated 2018)
